Measured values taken from ChEMBL document CHEMBL1201862, “PubChem BioAssay data set” (2004).
Calls of active or inactive are those of the source.

What was measured:
Mucolipin-3 [1] = target: T1, Mucolipin-3 (Homo sapiens, UniProt Q8TDD5); experiment: TRPML3 and TRPML2 channel agonists, cell-based, patch clamp, Fura-2 profiling panel, panel member TRPML3 Dose Response (AID 2116)
T1 sequence (Q8TDD5 whole entry): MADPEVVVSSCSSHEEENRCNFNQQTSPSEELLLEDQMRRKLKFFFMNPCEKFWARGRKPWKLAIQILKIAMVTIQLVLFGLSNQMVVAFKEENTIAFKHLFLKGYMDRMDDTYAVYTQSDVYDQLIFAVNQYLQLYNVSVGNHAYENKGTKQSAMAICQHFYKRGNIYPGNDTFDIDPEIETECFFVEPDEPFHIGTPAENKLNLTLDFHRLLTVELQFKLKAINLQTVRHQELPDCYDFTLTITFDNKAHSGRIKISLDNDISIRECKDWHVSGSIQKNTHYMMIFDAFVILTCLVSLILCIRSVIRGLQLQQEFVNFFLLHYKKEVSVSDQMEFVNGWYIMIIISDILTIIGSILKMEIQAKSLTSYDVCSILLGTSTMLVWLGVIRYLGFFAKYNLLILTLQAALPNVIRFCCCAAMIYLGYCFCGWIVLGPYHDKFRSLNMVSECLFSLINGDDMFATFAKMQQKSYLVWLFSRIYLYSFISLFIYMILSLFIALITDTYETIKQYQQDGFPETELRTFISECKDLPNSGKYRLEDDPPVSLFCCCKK

Mucolipin-3 [2] = target: T1, Mucolipin-3; experiment: Dose response cell-based high-throughput screening assay for agonists of the transient receptor potential channel ML3 (TRPML3). [Related pubchem assays: 1526, 1424, 1448 ]; type: functional
Ion channel NompC [3] = target: T2, Ion channel NompC (Danio rerio, UniProt Q7T1G6); experiment: Fluorescence counterscreen assay for TRPML3 agonists: dose response cell-based high-throughput screening assay to identify agonists of the transient receptor potential channel N1 (TRPN1). [Related pubchem assays: 1526, 1424, 1448 ]; type: functional
T2 sequence (Q7T1G6 whole entry): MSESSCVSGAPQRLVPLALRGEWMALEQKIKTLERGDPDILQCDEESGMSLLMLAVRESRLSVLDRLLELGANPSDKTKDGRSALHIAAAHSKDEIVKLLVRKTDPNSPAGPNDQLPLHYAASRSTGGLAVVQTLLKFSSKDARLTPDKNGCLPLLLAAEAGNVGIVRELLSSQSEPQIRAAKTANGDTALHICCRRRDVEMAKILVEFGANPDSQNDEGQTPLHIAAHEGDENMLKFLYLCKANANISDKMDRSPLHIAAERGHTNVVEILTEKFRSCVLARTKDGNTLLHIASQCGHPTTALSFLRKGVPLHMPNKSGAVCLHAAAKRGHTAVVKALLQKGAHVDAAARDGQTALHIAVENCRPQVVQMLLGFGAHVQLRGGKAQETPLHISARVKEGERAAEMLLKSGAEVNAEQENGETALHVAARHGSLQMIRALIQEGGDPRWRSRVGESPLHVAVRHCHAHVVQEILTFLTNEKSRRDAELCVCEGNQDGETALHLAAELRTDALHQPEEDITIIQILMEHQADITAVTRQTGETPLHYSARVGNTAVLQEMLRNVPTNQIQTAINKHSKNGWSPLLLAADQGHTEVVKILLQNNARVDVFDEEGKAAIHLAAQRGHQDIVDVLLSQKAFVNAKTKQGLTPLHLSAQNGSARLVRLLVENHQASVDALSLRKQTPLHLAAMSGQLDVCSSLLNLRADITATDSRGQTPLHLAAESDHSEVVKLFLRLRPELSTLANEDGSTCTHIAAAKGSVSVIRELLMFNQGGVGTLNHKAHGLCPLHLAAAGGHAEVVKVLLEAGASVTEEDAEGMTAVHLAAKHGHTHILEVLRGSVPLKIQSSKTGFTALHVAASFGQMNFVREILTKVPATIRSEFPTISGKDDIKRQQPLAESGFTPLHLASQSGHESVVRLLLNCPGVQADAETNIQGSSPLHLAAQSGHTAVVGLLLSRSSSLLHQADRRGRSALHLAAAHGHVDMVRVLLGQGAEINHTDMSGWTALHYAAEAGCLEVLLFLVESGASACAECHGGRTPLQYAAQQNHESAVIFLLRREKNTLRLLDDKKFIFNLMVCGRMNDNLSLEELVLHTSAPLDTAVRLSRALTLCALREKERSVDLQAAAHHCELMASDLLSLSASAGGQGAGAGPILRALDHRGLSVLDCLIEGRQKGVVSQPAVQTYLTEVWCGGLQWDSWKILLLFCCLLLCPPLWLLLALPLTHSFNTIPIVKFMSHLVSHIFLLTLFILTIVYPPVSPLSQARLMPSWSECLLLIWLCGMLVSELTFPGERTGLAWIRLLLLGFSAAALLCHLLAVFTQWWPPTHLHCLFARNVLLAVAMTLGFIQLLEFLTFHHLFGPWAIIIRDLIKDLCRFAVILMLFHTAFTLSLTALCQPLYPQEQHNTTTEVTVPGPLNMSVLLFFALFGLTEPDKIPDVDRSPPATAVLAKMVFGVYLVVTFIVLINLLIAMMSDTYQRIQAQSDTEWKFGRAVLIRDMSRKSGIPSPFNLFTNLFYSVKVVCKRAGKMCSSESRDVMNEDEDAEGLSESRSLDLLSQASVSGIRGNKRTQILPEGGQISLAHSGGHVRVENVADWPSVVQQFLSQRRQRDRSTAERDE

[4] = inhibitors of SNCA 5'UTR-driven reporter translation, confirmation, H4 neuroglioma cells, luminescence (AID 1988); type: functional, cell-based
[5] = cytotoxicity in HEK-293T cells, dose response, cytotoxicity control for TCR NF-kB inhibitor project, luminescence, T-cell screen hits (AID 489026); type: functional, cell-based;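 also: cells exposed to compound about 14 hours before the viability readout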
[6] = inhibitors of firefly luciferase expression or activity, dose response, H4 neuroglioma cells, luminescence (AID 1990); type: functional, cell-based
Ion channel NompC [7] = target: T2, Ion channel NompC; experiment: TRPML3 and TRPML2 channel agonists, cell-based, patch clamp, Fura-2 profiling panel, panel member TRPN1 Dose Response (AID 2116)
[8] = Luminescence Cell-Based Dose Response HTS to Identify Inhibitors of 5'UTR Stem-Loop Driven Prion Protein mRNA Translation in H4 Neuroglioblastoma Cells. [Related pubchem assays: 1827 (Project Summary), 1813 (Primary HTS)]; type: functional
[9] = target: T3, DNA dC->dU-editing enzyme APOBEC-3G (Homo sapiens, UniProt Q9HC16); experiment: Dose Response confirmation of small molecule APOBEC3G DNA Deaminase Inhibitors via a fluorescence-based single-stranded DNA deaminase assay. [Related pubchem assays (depositor defined):AID493012, AID493028]; type: functional
T3 sequence (Q9HC16 whole entry): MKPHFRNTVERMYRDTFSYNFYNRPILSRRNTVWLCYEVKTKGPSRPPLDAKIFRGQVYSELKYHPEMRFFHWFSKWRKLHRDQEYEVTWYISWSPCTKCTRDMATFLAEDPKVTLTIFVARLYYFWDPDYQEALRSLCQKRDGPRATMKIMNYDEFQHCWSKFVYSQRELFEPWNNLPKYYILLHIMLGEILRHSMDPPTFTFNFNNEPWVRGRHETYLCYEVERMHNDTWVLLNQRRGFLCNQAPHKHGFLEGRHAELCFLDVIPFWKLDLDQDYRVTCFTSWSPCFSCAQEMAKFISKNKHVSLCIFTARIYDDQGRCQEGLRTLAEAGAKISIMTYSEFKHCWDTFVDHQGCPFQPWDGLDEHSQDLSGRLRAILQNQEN

[10] = target: T4, DNA dC->dU-editing enzyme APOBEC-3A (Homo sapiens, UniProt P31941); experiment: APOBEC3A DNA deaminase inhibitors, dose response, biochemical (AID 504722); type: functional
T4 sequence (P31941 whole entry): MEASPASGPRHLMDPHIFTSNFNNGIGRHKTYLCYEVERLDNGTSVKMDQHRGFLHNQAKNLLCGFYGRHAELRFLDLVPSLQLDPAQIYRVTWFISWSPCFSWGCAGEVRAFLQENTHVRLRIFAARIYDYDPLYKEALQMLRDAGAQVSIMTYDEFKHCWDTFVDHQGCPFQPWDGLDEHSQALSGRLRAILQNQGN

[11] = target: Neuropeptides B/W receptor type 1 (Homo sapiens, UniProt P48145); experiment: Fluorescence-based dose response cell-based high throughput screening assay to identify antagonists of the G-protein coupled receptor 7 (GPR7). [Related pubchem assays: 1952 (Screening assay (GPR7 antagonists).), 1880 (Summary AID.)]; type: functional
Neuropeptides B/W receptor type 1, sequence (P48145 whole entry): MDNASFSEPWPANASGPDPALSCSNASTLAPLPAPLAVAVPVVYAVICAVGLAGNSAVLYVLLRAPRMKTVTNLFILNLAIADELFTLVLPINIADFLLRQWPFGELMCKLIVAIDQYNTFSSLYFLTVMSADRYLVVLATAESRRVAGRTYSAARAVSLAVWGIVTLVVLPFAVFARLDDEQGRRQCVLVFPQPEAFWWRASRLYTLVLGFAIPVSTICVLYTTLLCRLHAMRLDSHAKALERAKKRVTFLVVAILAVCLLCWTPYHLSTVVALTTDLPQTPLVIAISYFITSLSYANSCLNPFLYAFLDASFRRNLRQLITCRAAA

[12] = cytotoxicity in HPDE-C7 cells, cell-based, fluorescence, HTS (AID 430); type: functional; details: Homo sapiens
[13] = target: Melanin-concentrating hormone receptor 1 (Homo sapiens, UniProt Q99705); experiment: Fluorescence-based counterscreen for antagonists of the G-protein coupled receptor 7 (GPR7): cell-based high throughput dose response assay to identify antagonists of the melanin-concentrating hormone receptor 1 (MCHR1).; type: functional
Melanin-concentrating hormone receptor 1, sequence (Q99705 whole entry): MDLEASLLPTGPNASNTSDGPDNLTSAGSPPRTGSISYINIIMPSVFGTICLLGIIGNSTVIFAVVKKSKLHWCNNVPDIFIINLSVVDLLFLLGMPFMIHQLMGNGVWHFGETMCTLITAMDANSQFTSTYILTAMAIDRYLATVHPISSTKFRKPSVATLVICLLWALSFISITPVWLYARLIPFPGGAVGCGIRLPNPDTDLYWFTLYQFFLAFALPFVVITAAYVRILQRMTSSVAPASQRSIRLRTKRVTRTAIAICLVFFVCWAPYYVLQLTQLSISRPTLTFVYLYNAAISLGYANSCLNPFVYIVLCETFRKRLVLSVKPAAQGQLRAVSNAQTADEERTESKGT

[14] = cytotoxicity in KRAS-transformed pancreatic duct cells, primary screen, cell-based, fluorescence, HTS (AID 431); type: functional; details: Homo sapiens;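 also: cell line used: HPDE-C7K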
Importin subunit alpha-1 = Importin subunit alpha-1 (Homo sapiens, UniProt P52292); experiment: YIC FRET probe signal interference, dose response, counter-screen for RanGTP-importin-beta inhibitor project, biochemical, dry powder samples (AID 493094); type: functional
[15] = target: Polyadenylate-binding protein 1 (Homo sapiens, UniProt P11940); experiment: PABP poly(A) RNA binding inhibitors, primary screen, biochemical, fluorescence polarization, uHTS (AID 2014)
Polyadenylate-binding protein 1, sequence (P11940 whole entry): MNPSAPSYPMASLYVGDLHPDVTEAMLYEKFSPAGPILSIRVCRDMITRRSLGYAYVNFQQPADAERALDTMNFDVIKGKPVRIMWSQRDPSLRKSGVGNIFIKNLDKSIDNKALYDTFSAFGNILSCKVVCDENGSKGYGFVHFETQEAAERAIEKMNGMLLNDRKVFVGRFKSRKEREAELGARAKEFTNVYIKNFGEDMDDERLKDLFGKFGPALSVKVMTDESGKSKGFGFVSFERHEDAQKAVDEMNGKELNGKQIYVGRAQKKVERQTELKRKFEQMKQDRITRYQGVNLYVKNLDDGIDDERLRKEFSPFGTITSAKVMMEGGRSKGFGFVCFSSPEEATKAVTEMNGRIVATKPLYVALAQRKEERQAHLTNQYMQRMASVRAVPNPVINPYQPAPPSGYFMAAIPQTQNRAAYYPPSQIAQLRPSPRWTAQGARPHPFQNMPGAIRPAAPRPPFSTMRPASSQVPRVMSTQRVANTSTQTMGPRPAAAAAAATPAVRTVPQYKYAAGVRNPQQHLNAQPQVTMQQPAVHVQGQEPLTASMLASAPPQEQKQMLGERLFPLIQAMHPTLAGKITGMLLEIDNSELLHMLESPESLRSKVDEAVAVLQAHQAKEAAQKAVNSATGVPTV

[16] = target: Eukaryotic translation initiation factor 4H (Homo sapiens, UniProt Q15056); experiment: human eIF4H binding inhibitors, primary screen, translation initiation inhibitor project, biochemical, uHTS, fluorescence polarization (AID 2012)
[17] = target: T4, DNA dC->dU-editing enzyme APOBEC-3A; experiment: Dose Response confirmation of small molecule APOBEC3A DNA Deaminase Inhibitors via a fluorescence-based single-stranded DNA deaminase assay. [Related pubchem assays (depositor defined):AID493011, AID493024]; type: functional
[18] = target: T3, DNA dC->dU-editing enzyme APOBEC-3G; type: functional
[19] = cytotoxicity toward NIH3T3 fibroblasts, dose response, counter-screen, cell-based, ATP luminescence, mouse fibroblasts (AID 2010); type: functional;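 also: cells exposed to compound for about 90 hours before reading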
[20] = HepG2 cell cytotoxicity, dose response, cytotoxicity control for non-replicating M. tuberculosis project (AID 489018); type: functional; details: Mycobacterium tuberculosis
[21] = Vero E6 cell cytotoxicity, dose response, cytotoxicity control for non-replicating M. tuberculosis project, secondary assay (AID 492998); type: functional, VeroE6; details: Vero C1008
cells = type: functional
[22] = THP-1 cell cytotoxicity, dose response, cytotoxicity control for non-replicating M. tuberculosis project (AID 489025); type: functional
[23] = inhibitors of intracellular T. cruzi replication, confirmation, NIH3T3 host cells, beta-gal luminescence (AID 2044); type: functional, cell-based;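 also: intracellular parasites grown in NIH/3T3 mouse fibroblasts as host cells; luminescent beta-galactosidase reporter signal from transgenic T. cruzi replicating inside host cells; inhibitors lower the luminescence signal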

Cc1ccc(S(=O)(=O)Nc2ccccc2-c2ccccc2)cc1
EC50 (Mucolipin-3 [1]): 2.14 µM (active)
EC50 (Mucolipin-3 [2]): 1.59 µM (active)
EC50 (Ion channel NompC [3]): > 29.9 µM (not active)
EC50 [4]: 11.2 µM (active)
IC50 [5]: 79.9 µM (inactive)
EC50 [6]: > 120 µM (not active)
EC50 (Ion channel NompC [7]): > 29.9 µM (inactive)
EC50 [8]: > 120 µM (not active)

Cc1cccc(C)c1OCc1nnc(S)n1N
IC50 [9]: 5.83 µM (active)
IC50 [10]: > 100 µM (inactive)

CCc1ccccc1NC(=O)CN1C(=O)C2CCCN2c2ncc(Cl)cc21 (stereo not given)
IC50 [11]: > 43.8 µM (not active)
EC50 [12]: > 20 µM (not active)
IC50 [13]: > 43.8 µM (not active)
EC50 [14]: > 20 µM (not active)

Cc1cccc(C)c1NC(=O)C1C(=O)c2sccc2N(C)S1(=O)=O (stereo not given)
AC50 (Importin subunit alpha-1): 273 µM (active)

COc1cccc(NC(=O)c2ccc[n+](C)c2)c1
IC50 [15]: 4.86 µM (active)
IC50 [16]: > 100 µM (inactive)
IC50 [17]: 2.33 µM (active)
IC50 [18]: 2.22 µM (active)

CC(=O)Nc1nc2ccccc2n1Cc1ccc(C)cc1
EC50 [19]: 7.78 µM (active)
CC50 [20]: > 20 µM (active)
CC50 [21]: > 20 µM (active)
IC50 (cells): 2.73 µM (active)
CC50 [22]: > 40 µM (active)
EC50 [23]: 3.92 µM (active)
